For series [1], the target named is T1, Hematopoietic prostaglandin D synthase (Rattus norvegicus, UniProt O35543).
T1 sequence (O35543 whole entry): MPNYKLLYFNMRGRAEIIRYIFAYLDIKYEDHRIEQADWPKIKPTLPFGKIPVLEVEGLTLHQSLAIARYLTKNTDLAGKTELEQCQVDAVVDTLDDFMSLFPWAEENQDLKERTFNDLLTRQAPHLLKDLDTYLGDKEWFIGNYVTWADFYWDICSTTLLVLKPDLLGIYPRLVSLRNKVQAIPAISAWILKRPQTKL
Kind of series: Inhibition of H-PGDS in rat RBL cells assessed as reduction in A23187-induced PGD2 production pretreated for 30 mins followed by A23187 addition for 30 mins by RapidFire Mass spectrometry. The class given is cell-based.

Series [2] can be described thus: Dissociation constant, pKa of the compound by UV spectroscopy or potentiometric analysis. The class given is physicochemical.
The nature of series [3]: Solubility of the compound in FaSSIF at pH 6.5 measured after 4 hrs by HPLC-UV analysis. The class given is ADME.
Another series has as its target Albumin (Homo sapiens, UniProt P02768). The experiment in a line: Protein binding in human serum albumin by HPLC analysis. Format: ADME, cell-free. The following applies: read-out: PB (converted).
Series [4] can be described thus: Terminal half life in mouse at 1 mg/kg, iv. The class given is ADME, organism-based. The following applies: in vivo, iv, 1 mg/kg.
The nature of series [5]: Clearance in mouse at 1 mg/kg, iv. The following applies: in vivo. Format: ADME, organism-based.
Series [6] is described as follows: Volume of distribution at steady state in mouse at 1 mg/kg, iv. Format: ADME, organism-based. The following applies: in vivo, read-out: Vdss.
The nature of series [7]: Oral bioavailability in mouse at 3 mg/kg. Format: ADME, organism-based. The following applies: in vivo.
Series [8] in a line: Ratio of drug level in brain to blood in mouse at 1 mg/kg, iv. The class given is ADME, organism-based. Particulars: read-out: BBR.
The nature of series [9]: Half life in mouse S9 fraction pretreated for 5 mins followed by incubation with NADP for 30 secs and measured upto 45 mins by LC-MS/MS analysis. Format: ADME, subcellular. Particulars: time 3030 sec.
Series [10] in a line: Toxicity in chronic eccentric muscle damage C57BL/6N mouse model assessed as seizure-like activity at >=10 mg/kg, po and measured after 4 days. Format: organism-based. The following applies: in vivo, 96 h, time 4 day.
The nature of series [11]: Toxicity in chronic eccentric muscle damage C57BL/6N mouse model assessed as adverse effects at <=6 mg/kg, po administered for 60 days. The class given is organism-based. Particulars: in vivo, 1440 h, time 60 day.

Converted amounts (≈) assume the structure as drawn.

Albumin, sequence (P02768 whole entry): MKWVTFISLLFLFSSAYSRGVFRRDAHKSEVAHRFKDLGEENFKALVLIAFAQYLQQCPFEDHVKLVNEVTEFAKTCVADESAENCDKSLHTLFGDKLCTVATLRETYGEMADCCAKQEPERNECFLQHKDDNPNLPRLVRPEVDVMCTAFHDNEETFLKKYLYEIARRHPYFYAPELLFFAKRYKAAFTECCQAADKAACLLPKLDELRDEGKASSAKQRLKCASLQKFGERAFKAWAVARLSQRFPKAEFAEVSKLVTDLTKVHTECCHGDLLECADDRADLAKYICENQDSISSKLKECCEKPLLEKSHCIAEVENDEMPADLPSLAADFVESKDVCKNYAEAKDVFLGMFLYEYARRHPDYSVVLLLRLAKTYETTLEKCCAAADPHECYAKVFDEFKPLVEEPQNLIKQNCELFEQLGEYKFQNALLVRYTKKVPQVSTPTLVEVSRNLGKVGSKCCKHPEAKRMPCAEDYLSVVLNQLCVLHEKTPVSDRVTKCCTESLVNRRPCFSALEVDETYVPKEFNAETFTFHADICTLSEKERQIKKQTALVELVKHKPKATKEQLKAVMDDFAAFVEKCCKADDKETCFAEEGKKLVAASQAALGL

For the compound `CC(C)(O)[C@H]1CC[C@H](NC(=O)c2cnc3cc(OC(F)F)ccc3c2)CC1`, the EC50 (commonly the concentration giving half of the maximal effect) in series [1] stood at 0.16 µM. For the same compound, the pKa (commonly the negative logarithm of the acid dissociation constant) in series [2] came out at 2.43. Besides, the solubility (as a rule, the concentration that dissolves in the medium under given conditions) at 4 h in series [3] is 0.07 mg/mL (≈ 185 µM). The fraction unbound on Albumin is 0.12. Also, the “beta t1/2” value in series [4] turned out to be 3.8 h. Further, the clearance (in general, a measure of how efficiently the substance is removed, as volume per time) in series [5] worked out at 0.336 L/h/kg. The Vd in series [6] came to 1.7 L/kg. In [7], the bioavailability (in general, the share of a dose that reaches the circulation, judged against a reference dose that is usually intravenous) came to 61%. Moreover, in series [8], the Kp worked out at 0.59. Moreover, the half-life (commonly how long it takes for the measured level to halve) in series [9] is over 3 h. Moreover, the Activity entry in series [10] was “Toxic”; in series [11], “Non-Toxic”.

(Values after ChEMBL document CHEMBL5260850, “The exploration of aza-quinolines as hematopoietic prostaglandin D synthase (H-PGDS) inhibitors with low brain exposure” (Bioorg Med Chem, 2020).)
